Where a name gives a salt, the structure may show the parent alone.
Key:
human factor XIa = biological target: T1, human factor XIa (Homo sapiens, UniProt P03951); test: Measurement of FXIa inhibition (fluorogenic peptide substrate Boc-Glu(OBzl)-Ala-Arg-AMC); type: biochemical; conditions: factor XIa from Kordia, 15 min preincubation, 30 min at 22° C., fluorescence
T1 construct: purchased Kordia
Outline: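 Released AMC fluorescence (360/460 nm) read after 30 min at 22 °C. The reaction was started with Boc-Glu(OBzl)-Ala-Arg-AMC (10 μM stock) after a 15 min preincubation of the enzyme (0.45 nM stock) with compound (final 50 μM to 0.00013 μM).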

human and animal plasma = test: Determination of anticoagulatory activity: activated partial thromboplastin time (aPTT) in plasma; conditions: concentration of test substance which brings about a 1.5-fold extension of the aPTT; plasma species not given
Outline: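 Citrated plasma (1:9, 0.11 M citrate; 4000 g, 15 min) from human or animal blood incubated with test compound and cephalin/kaolin PTT reagent for 3 min at 37° C.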

T1 sequence (P03951 388-625 limits assumed): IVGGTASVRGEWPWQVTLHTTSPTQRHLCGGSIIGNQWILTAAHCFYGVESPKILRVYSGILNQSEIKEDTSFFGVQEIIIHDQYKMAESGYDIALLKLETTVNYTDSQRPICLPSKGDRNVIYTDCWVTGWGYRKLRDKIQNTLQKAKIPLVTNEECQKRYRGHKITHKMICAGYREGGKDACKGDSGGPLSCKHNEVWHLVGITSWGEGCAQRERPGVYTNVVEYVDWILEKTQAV
T1 sequence (P03951 19-387 partner limits assumed): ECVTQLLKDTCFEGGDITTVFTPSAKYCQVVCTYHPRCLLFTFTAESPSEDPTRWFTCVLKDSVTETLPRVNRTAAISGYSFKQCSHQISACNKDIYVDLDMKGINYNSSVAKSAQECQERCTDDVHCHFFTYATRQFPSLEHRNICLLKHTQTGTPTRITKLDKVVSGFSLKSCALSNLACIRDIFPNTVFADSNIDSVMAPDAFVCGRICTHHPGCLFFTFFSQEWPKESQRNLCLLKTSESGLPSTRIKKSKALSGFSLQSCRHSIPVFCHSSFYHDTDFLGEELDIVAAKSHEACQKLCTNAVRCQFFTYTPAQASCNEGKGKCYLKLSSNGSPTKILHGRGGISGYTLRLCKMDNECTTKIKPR

Compound	IC50 (human factor XIa) [nM]	aPTT (human and animal plasma) [µmol/L]
Cc1cc(C(=O)NC2CCNCC2)ccc1-c1ccc(C[C@H](NC(=O)[C@H]2CC[C@H](CN)CC2)C(=O)Nc2ccc3[nH]c(C(F)(F)C(F)(F)F)nc3c2)cc1 [Example 57, 4′-[(2S)-2-({[trans-4-(Aminomethyl)cyclohexyl]carbonyl}amino)-3-oxo-3-{[2-(pentafluoroethyl)-1H-benzimidazol-5-yl]amino}propyl]-2-methyl-N-(piperidin-4-yl)biphenyl-4-carboxamide hydrochloride]	8.4	0.44
Cc1cc(C(=O)NC2CCNCC2)ccc1-c1ccc(C[C@H](NC(=O)[C@H]2CC[C@H](CN)CC2)C(=O)Nc2ccc3[nH]c(=O)oc3c2)cc1 [Example 55, 4′-{(2S)-2-({[trans-4-(Aminomethyl)cyclohexyl]carbonyl}amino)-3-oxo-3-[(2-oxo-2,3-dihydro-1,3-benzoxazol-6-yl)amino]propyl}-2-methyl-N-(piperidin-4-yl)biphenyl-4-carboxamide hydrochloride]	41	0.37
Cc1c(C(=O)NC2CCNCC2)ccc(-c2ccc(C[C@H](NC(=O)[C@H]3CC[C@H](CN)CC3)C(=O)Nc3ccc(-c4nn[nH]n4)cc3)cc2)c1C [Example 123, 4′-[(2S)-2-({[trans-4-(Aminomethyl)cyclohexyl]carbonyl}amino)-3-oxo-3-{[4-(2H-tetrazol-5-yl)phenyl]amino}propyl]-2,3-dimethyl-N-(piperidin-4-yl)biphenyl-4-carboxamide hydrochloride]	2.5	0.02
NC[C@H]1CC[C@H](C(=O)N[C@@H](Cc2ccc(-c3ccc(C(=O)NC4CCNCC4)c(F)c3)cc2)C(=O)Nc2ccc(-c3nn[nH]n3)cc2)CC1 [Example 45, 4′-[(2S)-2-({[trans-4-(Aminomethyl)cyclohexyl]carbonyl}amino)-3-oxo-3-{[4-(2H-tetrazol-5-yl)phenyl]amino}propyl]-3-fluoro-N-(piperidin-4-yl)biphenyl-4-carboxamide hydrochloride]	6.2	0.14
Cc1cc(C(=O)NC2CCN(C(C)C)CC2)ccc1-c1ccc(C[C@H](NC(=O)[C@H]2CC[C@H](CN)CC2)C(=O)Nc2ccc(-c3nn[nH]n3)c(F)c2)cc1 [Example 89, 4′-[(2S)-2-({[trans-4-(Aminomethyl)cyclohexyl]carbonyl}amino)-3-{[3-fluoro-4-(2H-tetrazol-5-yl)phenyl]amino}-3-oxopropyl]-N-(1-isopropylpiperidin-4-yl)-2-methylbiphenyl-4-carboxamide hydrochloride]	4.3	0.03
NC[C@H]1CC[C@H](C(=O)N[C@@H](Cc2ccc(-c3ccc(C(=O)N[C@H]4CC[C@H](O)CC4)c(F)c3)cc2)C(=O)Nc2ccc(-c3n[nH]c(C(F)(F)C(F)(F)C(=O)O)n3)cc2)CC1 [Example 112, 3-[3-(4-{[(2S)-2-({[trans-4-(Aminomethyl)cyclohexyl]carbonyl}amino)-3-{3′-fluoro-4′-[(trans-4-hydroxycyclohexyl)carbamoyl]biphenyl-4-yl}propanoyl]amino}phenyl)-1H-1,2,4-triazol-5-yl]-2,2,3,3-tetrafluoropropanoic acid hydrochloride]	2	0.17
Cc1cc(C(=O)NC2CCNCC2)ccc1-c1ccc(C[C@H](NC(=O)[C@H]2CC[C@H](CN)CC2)C(=O)Nc2ccc(-c3nc(C(F)(F)F)n[nH]3)cc2)cc1 [Example 48, 4′-[(2S)-2-({[trans-4-(Aminomethyl)cyclohexyl]carbonyl}amino)-3-oxo-3-({4-[3-(trifluoromethyl)-1H-1,2,4-triazol-5-yl]phenyl}amino)propyl]-2-methyl-N-(piperidin-4-yl)biphenyl-4-carboxamide hydrochloride]	2.7	0.1
Cc1cc(C(=O)NC2CCN(CC(F)(F)F)CC2)ccc1-c1ccc(C[C@H](NC(=O)[C@H]2CC[C@H](CN)CC2)C(=O)Nc2ccc(-c3nn[nH]n3)cc2)cc1 [Example 46, 4′-[(2S)-2-({[trans-4-(Aminomethyl)cyclohexyl]carbonyl}amino)-3-oxo-3-{[4-(2H-tetrazol-5-yl)phenyl]amino}propyl]-2-methyl-N-[1-(2,2,2-trifluoroethyl)piperidin-4-yl]biphenyl-4-carboxamide hydrochloride]	3.6	0.22
CCN(CC)CCNC(=O)c1ccc(-c2ccc(C[C@H](NC(=O)[C@H]3CC[C@H](CN)CC3)C(=O)Nc3ccc4cn[nH]c4c3)cc2)c(C)c1 [Example 6, 4′-[(2S)-2-({[trans-4-(Aminomethyl)cyclohexyl]carbonyl}amino)-3-(1H-indazol-6-ylamino)-3-oxopropyl]-N-[2-(diethylamino)ethyl]-2-methylbiphenyl-4-carboxamide hydrochloride]	17	0.21
Cc1cc(C(=O)N[C@H]2CCNC2)ccc1-c1ccc(C[C@H](NC(=O)[C@H]2CC[C@H](CN)CC2)C(=O)Nc2ccc3c(=O)[nH][nH]c3c2)cc1 [Example 25, 4′-{(2S)-2-({[trans-4-(Aminomethyl)cyclohexyl]carbonyl}amino)-3-oxo-3-[(3-oxo-2,3-dihydro-1H-indazol-6-yl)amino]propyl}-2-methyl-N-[(3S)-pyrrolidin-3-yl]biphenyl-4-carboxamide hydrochloride]	14	0.14
Cl.NC[C@H]1CC[C@H](C(=O)N[C@@H](Cc2ccc(-c3ccc(C(=O)NCCN4CCCC4)cc3)cc2)C(=O)Nc2ccc(-c3nnn[nH]3)cc2)CC1 [Example 91, 4′-[(2S)-2-({[trans-4-(Aminomethyl)cyclohexyl]carbonyl}amino)-3-oxo-3-{[4-(1H-tetrazol-5-yl)phenyl]amino}propyl]-N-[2-(pyrrolidin-1-yl)ethyl]biphenyl-4-carboxamide hydrochloride]	7.2	0.14
Cc1cc(C(=O)NCC(=O)N2CCC(N(C)C)CC2)ccc1-c1ccc(C[C@H](NC(=O)[C@H]2CC[C@H](CN)CC2)C(=O)Nc2ccc(-c3nnc(C(F)(F)C(F)(F)C(=O)O)[nH]3)cc2)cc1 [Example 114, 3-{5-[4-({(2S)-2-({[trans-4-(Aminomethyl)cyclohexyl]carbonyl}amino)-3-[4′-{(2-[4-(dimethylamino)piperidin-1-yl]-2-oxoethyl}carbamoyl)-2′-methylbiphenyl-4-yl]propanoyl}-amino)phenyl]-4H-1,2,4-triazol-3-yl}-2,2,3,3-tetrafluoropropanoic acid hydrochloride]	2.6	0.14
Cc1cc(C(=O)NC2CCN(C)CC2)ccc1-c1ccc(C[C@H](NC(=O)[C@H]2CC[C@H](CN)CC2)C(=O)Nc2ccc3[nH]c(C(F)(F)C(F)(F)F)nc3c2)cc1 [Example 82, 4′-[(2S)-2-({[trans-4-(Aminomethyl)cyclohexyl]carbonyl}amino)-3-oxo-3-{[2-(pentafluoroethyl)-1H-benzimidazol-5-yl]amino}propyl]-2-methyl-N-(1-methylpiperidin-4-yl)biphenyl-4-carboxamide hydrochloride]	21	0.39
CN(C)C1CCC(NC(=O)c2ccc(-c3ccc(C[C@H](NC(=O)[C@H]4CC[C@H](CN)CC4)C(=O)Nc4ccc(-c5nc(C(F)(F)C(F)(F)C(=O)O)n[nH]5)cc4)cc3)c(C(F)(F)F)c2)CC1 (stereo partly drawn) [Example 132, 3-{5-[4-({(2S)-2-({[trans-4-(Aminomethyl)cyclohexyl]carbonyl}amino)-3-[4′-{[4-(dimethyl-amino)cyclohexyl]carbamoyl}-2′-(trifluoromethyl)biphenyl-4-yl]propanoyl}amino)phenyl]-1H-1,2,4-triazol-3-yl}-2,2,3,3-tetrafluoropropanoic acid hydrochloride]	1.6	0.05
Cc1cc(C(=O)NCCCN(C)C)ccc1-c1ccc(C[C@H](NC(=O)[C@H]2CC[C@H](CN)CC2)C(=O)Nc2ccc(-c3nn[nH]n3)cc2)cc1 [Example 35, 4′-[(2S)-2-({[trans-4-(Aminomethyl)cyclohexyl]carbonyl}amino)-3-oxo-3-{[4-(2H-tetrazol-5-yl)phenyl]amino}propyl]-N-[3-(dimethylamino)propyl]-2-methylbiphenyl-4-carboxamide hydrochloride]	2.3	0.11
Cc1c(C(=O)NC2CCNCC2)ccc(-c2ccc(C[C@H](NC(=O)[C@H]3CC[C@H](CN)CC3)C(=O)Nc3ccc(-c4nn[nH]n4)cc3)cc2)c1Cl [Example 124, 4′-[(2S)-2-({[trans-4-(Aminomethyl)cyclohexyl]carbonyl}amino)-3-oxo-3-{[4-(2H-tetrazol-5-yl)phenyl]amino}propyl]-2-chloro-3-methyl-N-(piperidin-4-yl)biphenyl-4-carboxamide hydrochloride]	1.8	0.1
Cc1cc(C(=O)N(C)C2CCN(C)CC2)ccc1-c1ccc(C[C@H](NC(=O)[C@H]2CC[C@H](CN)CC2)C(=O)Nc2ccc(-c3nnc(C(F)(F)C(F)(F)C(=O)O)[nH]3)cc2)cc1 [Example 113, 3-[5-(4-{[(2S)-2-({[trans-4-(Aminomethyl)cyclohexyl]carbonyl}amino)-3-{2′-methyl-4′-[methyl(1-methylpiperidin-4-yl)carbamoyl]biphenyl-4-yl}propanoyl]amino}phenyl)-4H-1,2,4-triazol-3-yl]-2,2,3,3-tetrafluoropropanoic acid hydrochloride]	4.9	0.07
Cc1cc(C(=O)NC2CCNCC2(C)C)ccc1-c1ccc(C[C@H](NC(=O)[C@H]2CC[C@H](CN)CC2)C(=O)Nc2ccc(-c3nnn[nH]3)cc2)cc1 (stereo partly drawn) [Example 149, 4′-[(2S)-2-({[trans-4-(Aminomethyl)cyclohexyl]carbonyl}amino)-3-oxo-3-{[4-(1H-tetrazol-5-yl)phenyl]amino}propyl]-N-(3,3-dimethylpiperidin-4-yl)-2-methylbiphenyl-4-carboxamide hydrochloride]	1.8	0.04

— patent publication US20160272617A1, “SUBSTITUTED PHENYLALANINE DERIVATIVES” (BAYER PHARMA AKTIENGESELLSCHAFT, priority 2013, published 2016)
